From patent US10287275B2, “16-member triamilide derivatives and uses thereof” (VICTOR PHARMA CO., LTD. ZHENJIANG, priority 2015, dated 2019)
≈ marks a conversion by molar mass, not a printed value.

Experiments:
Type in all cases: cell-based
[1] = test system: M. gallisepticum S6; assay: Mycoplasma susceptibility testing (MIC); conditions: Mycoplasmoides gallisepticum
Experimental: (§1) The MIC's in Table I and Table II were determined by standard agar-dilution assays or broth-dilution microtiter test.

[2] = test system: M. hyorinis BTS-7; assay: Mycoplasma susceptibility testing (MIC)
Experimental: as §1

[3] = test system: M. gallisepticum BG44T; assay: Mycoplasma susceptibility testing (MIC); conditions: Mycoplasmoides gallisepticum
Experimental: as §1

[4] = test system: Escherichia coli IN-F6-7; assay: Antibacterial MIC, agar-dilution or broth-dilution microtiter test; conditions: INF67; Strain E: Escherichia coli IN-F6-7
Experimental: as §1

[5] = test system: Pasteurella 8217; assay: as above; conditions: Strain C: Pasteurella 8217
Experimental: as §1

[6] = test system: Actinobacillus pleuropneumoniae serotype 7; assay: as above; conditions: Strain B: Actinobacillus pleuropneumoniae serotype 7
Experimental: as §1

[7] = test system: Actinobacillus pleuropneumoniae serotype 1; assay: as above; conditions: Strain A: Actinobacillus pleuropneumoniae serotype 1
Experimental: as §1

[8] = test system: Klebsiella pneumoniae 3753; assay: as above; conditions: Strain J: Klebsiella pneumoniae 3753
Experimental: as §1

[9] = test system: Staphylococcus aureus 29213 (QC strain); assay: as above; conditions: Strain H: Staphylococcus aureus 29213 (QC strain)
Experimental: as §1

[10] = test system: Staphylococcus aureus 5-1; assay: as above; conditions: 51; Strain G: Staphylococcus aureus 5-1
Experimental: as §1

[11] = test system: Streptococcus pneumoniae 49619 (QC strain); assay: as above; conditions: Strain M: Streptococcus pneumoniae 49619 (QC strain)
Experimental: as §1

[12] = test system: Streptococcus pneumoniae 2349; assay: as above; conditions: Strain L: Streptococcus pneumoniae 2349
Experimental: as §1

[13] = test system: salmonella LD4-8; assay: as above; conditions: LD48; Strain I: salmonella LD4-8
Experimental: as §1

[14] = test system: Pasteurella 8229; assay: as above; conditions: Strain D: Pasteurella 8229
Experimental: as §1

[15] = test system: Klebsiella pneumoniae 3699; assay: as above; conditions: Strain K: Klebsiella pneumoniae 3699
Experimental: as §1

[16] = test system: Escherichia coli 25922 (QC strain); assay: as above; conditions: Strain F: Escherichia coli 25922 (QC strain)
Experimental: as §1

CC[C@H]1OC(=O)C[C@@H](O)[C@H](C)[C@@H](O[C@@H]2O[C@H](C)[C@@H](O)[C@H](N(C)C)[C@H]2O)[C@@H](CCN2CCCCC2)C[C@@H](C)C(=O)/C=C/C(C)=C/[C@@H]1CN(CC)CC [Compound 4a, (4R,5S,6S,7R,9R,11E,13E,15R,16R)-15-((diethylamino)methyl)-6-(((2R,3R,4S,5S,6R)-4-(dimethylamino)-3,5-dihydroxy-6-methyltetrahydro-2H-pyran-2-yl)oxy)-16-ethyl-4-hydroxy-5,9,13-trimethyl-7-(2-(piperidin-1-yl)ethyl)oxacyclohexadeca-11,13-diene-2,10-dione]
MIC [1]: < 0.12 mg/L
MIC [2]: 62.5 mg/L (≈ 86.6 µM)
MIC [3]: < 0.12 mg/L
MIC [4]: 8 mg/L (≈ 11.1 µM)
MIC [5]: 0.5 mg/L (≈ 0.693 µM)
MIC [6]: 32 mg/L (≈ 44.3 µM)
MIC [7]: 32 mg/L (≈ 44.3 µM)
MIC [8]: 32 mg/L (≈ 44.3 µM)
MIC [9]: 4 mg/L (≈ 5.54 µM)
MIC [10]: > 256 mg/L
MIC [11]: 8 mg/L (≈ 11.1 µM)
MIC [12]: 0.5 mg/L (≈ 0.693 µM)
MIC [13]: 4 mg/L (≈ 5.54 µM)
MIC [14]: 0.5 mg/L (≈ 0.693 µM)
MIC [15]: > 256 mg/L
MIC [16]: 4 mg/L (≈ 5.54 µM)
